# Assay results as given in patent publication US12453725B2, “Treatment of inflammatory disease” (Celleron Therapeutics Limited, priority 2019, dated 2025).
# Key:
# [1] = Phase Ib/II clinical trial CTL-101-023, CXD101 with nivolumab, safety; format: in vivo, human; conditions: study CTL-101-023
# Description: A clinical trial was conducted involving 55 subjects. The clinical trial protocol is summarized below: • Protocol Number: CTL-101-023 • Investigational Product: CXD101 and nivolumab Active Ingredient(s)/INN: • CXD101 or N-(2-aminophenyl)-4-(1-[(1,3-dimethyl-1H-pyrazol-4yl) methyl]piperidin-4-yl)benzamide is a Class I-selective histone deacetylase (HDAC) inhibitor. • Nivolumab is a programmed death receptor-1 (PD-1)-blocking antibody. […] 2. […] Subjects may continue to receive CXD101/nivolumab until complete response, disease progression, unacceptable toxicity, withdrawal of consent, or other medical problems supervene. • Efficacy will be measured using Immune Response Evaluation Criteria in Solid Tumours (iRECIST) Imaging studies, typically CT scan of chest, abdomen & pelvis, supplemented by MRI of liver when required, will be performed at Baseline and after every 6 weeks, with objective confirmation of response 6 weeks (+/−1 week) after observation. • Safety parameters will be assessed as in the Phase I study. […]
# physchem = conditions: 25 °C, aqueous buffer
# SW620 cells = experiment: RNA-seq, SW620 cells; format: cell-based, human
# Description: SW620 cells were seeded into 6-well plates and left to adhere overnight. Cells were treated with 1 μM, 10 μM of CXD101 for 48 h. CT26 cells were seeded onto 100 mm plates and treated with 2.7 μM and 10 μM CXD101 for 72 h. After treatment cells were harvested and total RNA extracted by means of Promega ReliaPrep™ RNA Cell Miniprep System (Promega, USA). RNA was dissolved in RNAse free water and stored in −80° C. for future analysis. RNA concentration was measured by NanoDrop 2000 (Thermo Fisher Scientific, USA). Samples were qualified for library preparation if […]. Library preparation with poly (A) enrichment was performed by BGI.
# FASTQ files for CXD101 and DMSO treated samples in three biological replicates were trimmed to remove adapters and low-quality bases with TrimGalore v.0.4.3 (http://www.bioinformatics.babraham.ac.uk/projects/trim_galore/). The trimmed reads were aligned to the human reference genome (build hg19) with STAR aligner v.2.7 with two mismatches allowed. Differential gene expression analysis was done with the Bioconductor framework (v.3.8) and DESeq2 R package v.1.22, using read count data provided by the aligner. Genes were considered differentially expressed if the adjusted P, calculated using the Benjamini-Hochberg method in order to minimise the false discovery rate, was less than 0.01 (1%) and the change in expression level was greater than ˜2-fold as compared to DMSO control (e.g. |log_2(expression fold change)|>1).
structure (smiles),measurement,setting,value
"Cc1nn(C)cc1CN1CCC(c2ccc(C(=O)Nc3ccccc3N)cc2)CC1 [CXD101, N-(2-aminophenyl)-4-(1-[(1,3-dimethyl-1H-pyrazol-4-yl)methyl]piperidin-4-yl)benzamide]",neutropenia due to myelosuppression,[1],varying degrees of neutropenia
same,solubility,physchem,≥ 500 µg/mL
same,share of DEGs down-regulated,SW620 cells; SW620,30%
same,share of DEGs up-regulated,SW620 cells; SW620,70%
same,number of differentially expressed transcripts,SW620 cells; log 2 FC >1 and FDR <1%,about 2500
